Data from patent US20070048250A1, “Methods of treating concomitant constipation in a cancer treatment regimen including imexon” (AmpliMed Corporation, priority 2005, published 2007).

Experiments:
human tumor cell lines = settings: cited from earlier work
rats = settings: numerous studies; cited from earlier work
patients = test: clinical study of imexon to treat cancer: adverse events (daily dose 5 consecutive days per week, every other week, four-week cycle); assay type: in vivo, human
Source text: As described hereinbefore, it has been found, unexpectedly, that the administration of a pharmaceutical composition comprising imexon induces constipation in a large percentage of patients. Of forty nine (49) patients taking part in a clinical study investigating the use of imexon to treat cancer, thirty one (31) patients (63.3%) were reported to have had the gastrointestinal toxicity of constipation in association with their treatment with imexon. […] All other observed gastrointestinal adverse events individually accounted for less than 5% of total gastrointestinal adverse events.
Of the forty nine (49) patients treated in the clinical study, thirty nine (39) received imexon at a dose equal to or greater than 140 mg/m^2, thirty three (33) received imexon at a dose equal to or greater than 185 mg/m^2, and thirty (30) received imexon at a dose equal to or greater than 245 mg/m^2.
Of these seventy three (73) constipation adverse events, fifty two (52) of the adverse events (71.2%) were characterized as “possibly,” “probably,” or “definitely related to the treatment” of the patient with imexon.

[1] = 20 mg/m^2, relationship Not Related
[2] = 80 mg/m^2, relationship Not Related
[3] = 105 mg/m^2, relationship Not Related
[4] = 140 mg/m^2, relationship Not Related
[5] = 140 mg/m^2, relationship Probable
[6] = 140 mg/m^2, relationship Unlikely
[7] = 185 mg/m^2, relationship Not Related
[8] = 185 mg/m^2, relationship Possible
[9] = 185 mg/m^2, relationship Probable
[10] = 245 mg/m^2, relationship Not Related
[11] = 245 mg/m^2, relationship Possible
[12] = 245 mg/m^2, relationship Probable
[13] = 325 mg/m^2, relationship Possible
[14] = 325 mg/m^2, relationship Probable
[15] = 430 mg/m^2, relationship Possible
[16] = 430 mg/m^2, relationship Probable
[17] = 430 mg/m^2, relationship Unlikely
[18] = 570 mg/m^2, relationship Definite
[19] = 570 mg/m^2, relationship Probable
[20] = 750 mg/m^2, relationship Definite
[21] = 750 mg/m^2, relationship Possible
[22] = 750 mg/m^2, relationship Probable
[23] = 875 mg/m^2, relationship Definite
[24] = 875 mg/m^2, relationship Possible
[25] = 875 mg/m^2, relationship Probable
[26] = 1000 mg/m^2, relationship Probable
[27] = all doses 20-1000 mg/m^2 (Total), relationship Definite
[28] = all doses 20-1000 mg/m^2 (Total), relationship Not Related
[29] = all doses 20-1000 mg/m^2 (Total), relationship Possible
[30] = all doses 20-1000 mg/m^2 (Total), relationship Probable
[31] = all doses 20-1000 mg/m^2 (Total), relationship Unlikely
[32] = all doses 20-1000 mg/m^2, 49 patients, all relationships (Total)
[33] = dose equal to or greater than 185 mg/m^2
[34] = dose equal to or greater than 245 mg/m^2

Q: Which results are given for N=C1NC(=O)N2CC12 (stereo not shown) [imexon, 4-imino-1,3-diazabicyclo[3.1.0]-hexan-2-one]?
A: activity against a variety of human tumor cell lines in culture (human tumor cell lines): active; gastrointestinal lesions on pathologic examination (rats): not shown evidence of gastrointestinal lesions; Constipation Adverse Events, Total (patients; 20 mg/m^2, relationship Definite): 0; Constipation Adverse Events, Grade 2 (patients; [1]): 1; Constipation Adverse Events, Grade 3 (patients; [1]): 1; Constipation Adverse Events, Total (patients; [1]): 2; Constipation Adverse Events, Total (patients; 20 mg/m^2, relationship Possible): 0; Constipation Adverse Events, Total (patients; 20 mg/m^2, relationship Probable): 0; Constipation Adverse Events, Total (patients; 20 mg/m^2, relationship Unlikely): 0; Constipation Adverse Events, Total (patients; 40 mg/m^2, relationship Definite): 0; Constipation Adverse Events, Total (patients; 40 mg/m^2, relationship Not Related): 0; Constipation Adverse Events, Total (patients; 40 mg/m^2, relationship Possible): 0; Constipation Adverse Events, Total (patients; 40 mg/m^2, relationship Probable): 0; Constipation Adverse Events, Total (patients; 40 mg/m^2, relationship Unlikely): 0; Constipation Adverse Events, Total (patients; 80 mg/m^2, relationship Definite): 0; Constipation Adverse Events, Grade 2 (patients; [2]): 3; Constipation Adverse Events, Grade 3 (patients; [2]): 1; Constipation Adverse Events, Total (patients; [2]): 4; Constipation Adverse Events, Total (patients; 80 mg/m^2, relationship Possible): 0; Constipation Adverse Events, Total (patients; 80 mg/m^2, relationship Probable): 0; Constipation Adverse Events, Total (patients; 80 mg/m^2, relationship Unlikely): 0; Constipation Adverse Events, Total (patients; 105 mg/m^2, relationship Definite): 0; Constipation Adverse Events, Grade 2 (patients; [3]): 5; Constipation Adverse Events, Grade 3 (patients; [3]): 3; Constipation Adverse Events, Total (patients; [3]): 8; Constipation Adverse Events, Total (patients; 105 mg/m^2, relationship Possible): 0; Constipation Adverse Events, Total (patients; 105 mg/m^2, relationship Probable): 0; Constipation Adverse Events, Total (patients; 105 mg/m^2, relationship Unlikely): 0; Constipation Adverse Events, Total (patients; 140 mg/m^2, relationship Definite): 0; Constipation Adverse Events, Grade 2 (patients; [4]): 1; Constipation Adverse Events, Total (patients; [4]): 1; Constipation Adverse Events, Total (patients; 140 mg/m^2, relationship Possible): 0; Constipation Adverse Events, Grade 2 (patients; [5]): 1; Constipation Adverse Events, Total (patients; [5]): 1; Constipation Adverse Events, Grade 2 (patients; [6]): 2; Constipation Adverse Events, Grade 3 (patients; [6]): 1; Constipation Adverse Events, Total (patients; [6]): 3; Constipation Adverse Events, Total (patients; 185 mg/m^2, relationship Definite): 0; Constipation Adverse Events, Grade 3 (patients; [7]): 1; Constipation Adverse Events, Total (patients; [7]): 1; Constipation Adverse Events, Grade 1 (patients; [8]): 1; Constipation Adverse Events, Total (patients; [8]): 1; Constipation Adverse Events, Grade 2 (patients; [9]): 1; Constipation Adverse Events, Total (patients; [9]): 1; Constipation Adverse Events, Total (patients; 185 mg/m^2, relationship Unlikely): 0; Constipation Adverse Events, Total (patients; 245 mg/m^2, relationship Definite): 0; Constipation Adverse Events, Grade 1 (patients; [10]): 1; Constipation Adverse Events, Total (patients; [10]): 1; Constipation Adverse Events, Grade 2 (patients; [11]): 4; Constipation Adverse Events, Grade 3 (patients; [11]): 1; Constipation Adverse Events, Total (patients; [11]): 5; Constipation Adverse Events, Grade 2 (patients; [12]): 2; Constipation Adverse Events, Grade 3 (patients; [12]): 1; Constipation Adverse Events, Total (patients; [12]): 3; Constipation Adverse Events, Total (patients; 245 mg/m^2, relationship Unlikely): 0; Constipation Adverse Events, Total (patients; 325 mg/m^2, relationship Definite): 0; Constipation Adverse Events, Total (patients; 325 mg/m^2, relationship Not Related): 0; Constipation Adverse Events, Grade 2 (patients; [13]): 2; Constipation Adverse Events, Total (patients; [13]): 2; Constipation Adverse Events, Grade 1 (patients; [14]): 1; Constipation Adverse Events, Grade 2 (patients; [14]): 2; Constipation Adverse Events, Total (patients; [14]): 3; Constipation Adverse Events, Total (patients; 325 mg/m^2, relationship Unlikely): 0; Constipation Adverse Events, Total (patients; 430 mg/m^2, relationship Definite): 0; Constipation Adverse Events, Total (patients; 430 mg/m^2, relationship Not Related): 0; Constipation Adverse Events, Grade 2 (patients; [15]): 1; Constipation Adverse Events, Total (patients; [15]): 1; Constipation Adverse Events, Grade 1 (patients; [16]): 2; Constipation Adverse Events, Grade 2 (patients; [16]): 5; Constipation Adverse Events, Grade 3 (patients; [16]): 1; Constipation Adverse Events, Total (patients; [16]): 8; Constipation Adverse Events, Grade 1 (patients; [17]): 1; Constipation Adverse Events, Total (patients; [17]): 1; Constipation Adverse Events, Grade 1 (patients; [18]): 1; Constipation Adverse Events, Grade 2 (patients; [18]): 4; Constipation Adverse Events, Grade 3 (patients; [18]): 2; Constipation Adverse Events, Total (patients; [18]): 7; Constipation Adverse Events, Total (patients; 570 mg/m^2, relationship Not Related): 0; Constipation Adverse Events, Total (patients; 570 mg/m^2, relationship Possible): 0; Constipation Adverse Events, Grade 1 (patients; [19]): 1; Constipation Adverse Events, Total (patients; [19]): 1; Constipation Adverse Events, Total (patients; 570 mg/m^2, relationship Unlikely): 0; Constipation Adverse Events, Grade 1 (patients; [20]): 1; Constipation Adverse Events, Grade 2 (patients; [20]): 4; Constipation Adverse Events, Grade 3 (patients; [20]): 3; Constipation Adverse Events, Total (patients; [20]): 8; Constipation Adverse Events, Total (patients; 750 mg/m^2, relationship Not Related): 0; Constipation Adverse Events, Grade 1 (patients; [21]): 2; Constipation Adverse Events, Total (patients; [21]): 2; Constipation Adverse Events, Grade 2 (patients; [22]): 2; Constipation Adverse Events, Total (patients; [22]): 2; Constipation Adverse Events, Total (patients; 750 mg/m^2, relationship Unlikely): 0; Constipation Adverse Events, Grade 1 (patients; [23]): 2; Constipation Adverse Events, Grade 2 (patients; [23]): 1; Constipation Adverse Events, Grade 3 (patients; [23]): 1; Constipation Adverse Events, Total (patients; [23]): 4; Constipation Adverse Events, Total (patients; 875 mg/m^2, relationship Not Related): 0; Constipation Adverse Events, Grade 2 (patients; [24]): 1; Constipation Adverse Events, Total (patients; [24]): 1; Constipation Adverse Events, Grade 1 (patients; [25]): 1; Constipation Adverse Events, Total (patients; [25]): 1; Constipation Adverse Events, Total (patients; 875 mg/m^2, relationship Unlikely): 0; Constipation Adverse Events, Total (patients; 1000 mg/m^2, relationship Definite): 0; Constipation Adverse Events, Total (patients; 1000 mg/m^2, relationship Not Related): 0; Constipation Adverse Events, Total (patients; 1000 mg/m^2, relationship Possible): 0; Constipation Adverse Events, Grade 2 (patients; [26]): 1; Constipation Adverse Events, Total (patients; [26]): 1; Constipation Adverse Events, Total (patients; 1000 mg/m^2, relationship Unlikely): 0; all other observed gastrointestinal adverse events, individually, as share of total gastrointestinal adverse events (patients; 49 patients): less than 5%; anorexia as share of total gastrointestinal adverse events (patients; 49 patients): 13.4%; constipation adverse events as share of all gastrointestinal adverse events (patients; 49 patients): 21.8%; diarrhea as share of total gastrointestinal adverse events (patients; 49 patients): 10.5%; nausea as share of all gastrointestinal adverse events (patients; 49 patients): 23.0%; vomiting as share of total gastrointestinal adverse events (patients; 49 patients): 11.9%; Constipation Adverse Events, Grade 1 (patients; [27]): 4; Constipation Adverse Events, Grade 2 (patients; [27]): 9; Constipation Adverse Events, Grade 3 (patients; [27]): 6; Constipation Adverse Events, Grade 4 (patients; [27]): 0; Constipation Adverse Events, Grade 5 (patients; [27]): 0; Constipation Adverse Events, Total (patients; [27]): (Total) 19; Constipation Adverse Events, Grade 1 (patients; [28]): 1; Constipation Adverse Events, Grade 2 (patients; [28]): 10; Constipation Adverse Events, Grade 3 (patients; [28]): 6; Constipation Adverse Events, Grade 4 (patients; [28]): 0; Constipation Adverse Events, Grade 5 (patients; [28]): 0; Constipation Adverse Events, Total (patients; [28]): (Total) 17; Constipation Adverse Events, Grade 1 (patients; [29]): 3; Constipation Adverse Events, Grade 2 (patients; [29]): 8; Constipation Adverse Events, Grade 3 (patients; [29]): 1; Constipation Adverse Events, Grade 4 (patients; [29]): 0; Constipation Adverse Events, Grade 5 (patients; [29]): 0; Constipation Adverse Events, Total (patients; [29]): (Total) 12; Constipation Adverse Events, Grade 1 (patients; [30]): 5; Constipation Adverse Events, Grade 2 (patients; [30]): 14; Constipation Adverse Events, Grade 3 (patients; [30]): 2; Constipation Adverse Events, Grade 4 (patients; [30]): 0; Constipation Adverse Events, Grade 5 (patients; [30]): 0; Constipation Adverse Events, Total (patients; [30]): (Total) 21; Constipation Adverse Events, Grade 1 (patients; [31]): 1; Constipation Adverse Events, Grade 2 (patients; [31]): 2; Constipation Adverse Events, Grade 3 (patients; [31]): 1; Constipation Adverse Events, Grade 4 (patients; [31]): 0; Constipation Adverse Events, Grade 5 (patients; [31]): 0; Constipation Adverse Events, Total (patients; [31]): (Total) 4; Constipation Adverse Events, Grade 1 (patients; [32]): (Total) 14; Constipation Adverse Events, Grade 2 (patients; [32]): (Total) 43; Constipation Adverse Events, Grade 3 (patients; [32]): (Total) 16; Constipation Adverse Events, Grade 4 (patients; [32]): (Total) 0; Constipation Adverse Events, Grade 5 (patients; [32]): (Total) 0; Constipation Adverse Events, Total (patients; [32]): 73; Constipation Adverse Events, Total (patients; all doses 20-1000 mg/m^2, 49 patients, all relationships (Total), listed as Imexon): (Total) 73; constipation adverse events characterized as possibly, probably, or definitely related to the treatment (patients; [33]): 94.4%; constipation adverse events characterized as probably, or definitely related to the treatment (patients; [33]): 72.2%; constipation adverse events in total (patients; [33]): 54; constipation adverse events characterized as possibly, probably, or definitely related to the treatment (patients; [34]): 96.1%; constipation adverse events characterized as probably, or definitely related to the treatment (patients; [34]): 74.5%; constipation adverse events in total (patients; [34]): 51
